# Tests used:
# Huh-7 = experiment: Cytotoxicity against human HuH7 cells assessed as reduction in cell viability at 12 uM measured after 48 hrs by celltiter-blue assay; type: cell-based; settings: huh-7, 48 h
# Trypsin = Trypsin (Homo sapiens, UniProt P07477+P07478+P35030); experiment: Inhibition of trypsin (unknown origin) at 50 uM using Boc-Val-Pro-Arg-AMC as substrate preincubated for 15 mins followed by substrate addition and measured for 15 mins by fluorimetric assay relative to control; type: protein assay; settings: 0.25 h, 50 µM
# Genome polyprotein [1] = biological target: Genome polyprotein (West Nile virus, UniProt P06935); experiment: Inhibition of West Nile virus NS2B-NS3 protease expressed in Escherichia coli BL21 lambda (DE3) cells using Abz-Gly-Leu-Lys-Arg-Gly-Gly-3-(NO2)Tyr as substrate preincubated for 15 mins followed by substrate addition measured for 15 mins by fluorimetric analysis
# [2] = biological target: Genome polyprotein (West Nile virus) (UniProt P06935); experiment: Inhibition of West Nile virus NS2B-NS3 protease expressed in Escherichia coli BL21 lambda (DE3) cells at 50 uM using Abz-Gly-Leu-Lys-Arg-Gly-Gly-3-(NO2)Tyr as substrate preincubated for 15 mins followed by substrate addition measured for 15 mins by fluorimetric analysis relative to control
# dengue virus type 2 [3] = experiment: Antiviral activity against DENV2 infected in human HuH7 cells assessed as reduction in virus titer at 12.5 uM measured after 48 hrs relative to control; type: functional; settings: Huh-7, 48 h
# Genome polyprotein [4] = biological target: T1, Genome polyprotein (dengue virus type 2, UniProt P29990); experiment: Inhibition of Dengue virus serotype 2 NS2B-NS3 protease expressed in Escherichia coli BL21 lambda (DE3) cells using Abz-Nle-Lys-Arg-Arg-Ser-3-(NO2)Tyr as substrate preincubated for 15 mins followed by substrate addition and measured for 15 mins by FRET assay
# [5] = biological target: Genome polyprotein (dengue virus type 2) (UniProt P29990); experiment: Inhibition of Dengue virus serotype 2 NS2B-NS3 protease transfected in human HeLa cells at 12.5 uM measured after 24 hrs by Renilla-luciferase reporter gene assay relative to control; type: cell-based
# Genome polyprotein [6] = biological target: T1, Genome polyprotein; experiment: Inhibition of Dengue virus serotype 2 NS2B-NS3 protease transfected in human HeLa cells measured after 24 hrs by Renilla-luciferase reporter gene assay; type: cell-based
# [7] = biological target: Genome polyprotein (dengue virus type 2) (UniProt P29990); experiment: Inhibition of Dengue virus serotype 2 NS2B-NS3 protease expressed in Escherichia coli BL21 lambda (DE3) cells at 50 uM using Abz-Nle-Lys-Arg-Arg-Ser-3-(NO2)Tyr as substrate preincubated for 15 mins followed by substrate addition and measured for 15 mins by FRET assay relative to control
# [8] = Cytotoxicity against human HeLa cells assessed as reduction in cell viability measured after 24 hrs by celltiter-blue assay; type: cell-based
# Prothrombin = Prothrombin (Homo sapiens, UniProt P00734); experiment: Inhibition of thrombin (unknown origin) at 25 uM using Boc-Val-Pro-Arg-AMC as substrate preincubated for 15 mins followed by substrate addition and measured for 15 mins by fluorimetric assay; settings: 0.25 h
# [9] = Permeability of the compound at 200 uM measured after 5 hrs at pH 7.4 by PAMPA; type: ADME; settings: read-out: permeability
# [10] = Permeability of the compound assessed as mass retention at 200 uM measured after 5 hrs at pH 7.4 by PAMPA; type: ADME; settings: pH 7.4, 5 h
# [11] = Permeability of the compound assessed as drug level in donor plate at 200 uM measured after 5 hrs at pH 7.4 by PAMPA; type: ADME; settings: pH 7.4, 5 h
# [12] = Permeability of the compound assessed as drug level in acceptor plate at 200 uM measured after 5 hrs at pH 7.4 by PAMPA; type: ADME; settings: pH 7.4, 5 h
# dengue virus type 2 [13] = experiment: Antiviral activity against DENV2 infected in human HuH7 cells assessed as reduction in virus titer measured after 48 hrs; type: functional, organism-based; settings: Huh-7, 48 h
# Sequence of Genome polyprotein (West Nile virus) (P06935 whole entry): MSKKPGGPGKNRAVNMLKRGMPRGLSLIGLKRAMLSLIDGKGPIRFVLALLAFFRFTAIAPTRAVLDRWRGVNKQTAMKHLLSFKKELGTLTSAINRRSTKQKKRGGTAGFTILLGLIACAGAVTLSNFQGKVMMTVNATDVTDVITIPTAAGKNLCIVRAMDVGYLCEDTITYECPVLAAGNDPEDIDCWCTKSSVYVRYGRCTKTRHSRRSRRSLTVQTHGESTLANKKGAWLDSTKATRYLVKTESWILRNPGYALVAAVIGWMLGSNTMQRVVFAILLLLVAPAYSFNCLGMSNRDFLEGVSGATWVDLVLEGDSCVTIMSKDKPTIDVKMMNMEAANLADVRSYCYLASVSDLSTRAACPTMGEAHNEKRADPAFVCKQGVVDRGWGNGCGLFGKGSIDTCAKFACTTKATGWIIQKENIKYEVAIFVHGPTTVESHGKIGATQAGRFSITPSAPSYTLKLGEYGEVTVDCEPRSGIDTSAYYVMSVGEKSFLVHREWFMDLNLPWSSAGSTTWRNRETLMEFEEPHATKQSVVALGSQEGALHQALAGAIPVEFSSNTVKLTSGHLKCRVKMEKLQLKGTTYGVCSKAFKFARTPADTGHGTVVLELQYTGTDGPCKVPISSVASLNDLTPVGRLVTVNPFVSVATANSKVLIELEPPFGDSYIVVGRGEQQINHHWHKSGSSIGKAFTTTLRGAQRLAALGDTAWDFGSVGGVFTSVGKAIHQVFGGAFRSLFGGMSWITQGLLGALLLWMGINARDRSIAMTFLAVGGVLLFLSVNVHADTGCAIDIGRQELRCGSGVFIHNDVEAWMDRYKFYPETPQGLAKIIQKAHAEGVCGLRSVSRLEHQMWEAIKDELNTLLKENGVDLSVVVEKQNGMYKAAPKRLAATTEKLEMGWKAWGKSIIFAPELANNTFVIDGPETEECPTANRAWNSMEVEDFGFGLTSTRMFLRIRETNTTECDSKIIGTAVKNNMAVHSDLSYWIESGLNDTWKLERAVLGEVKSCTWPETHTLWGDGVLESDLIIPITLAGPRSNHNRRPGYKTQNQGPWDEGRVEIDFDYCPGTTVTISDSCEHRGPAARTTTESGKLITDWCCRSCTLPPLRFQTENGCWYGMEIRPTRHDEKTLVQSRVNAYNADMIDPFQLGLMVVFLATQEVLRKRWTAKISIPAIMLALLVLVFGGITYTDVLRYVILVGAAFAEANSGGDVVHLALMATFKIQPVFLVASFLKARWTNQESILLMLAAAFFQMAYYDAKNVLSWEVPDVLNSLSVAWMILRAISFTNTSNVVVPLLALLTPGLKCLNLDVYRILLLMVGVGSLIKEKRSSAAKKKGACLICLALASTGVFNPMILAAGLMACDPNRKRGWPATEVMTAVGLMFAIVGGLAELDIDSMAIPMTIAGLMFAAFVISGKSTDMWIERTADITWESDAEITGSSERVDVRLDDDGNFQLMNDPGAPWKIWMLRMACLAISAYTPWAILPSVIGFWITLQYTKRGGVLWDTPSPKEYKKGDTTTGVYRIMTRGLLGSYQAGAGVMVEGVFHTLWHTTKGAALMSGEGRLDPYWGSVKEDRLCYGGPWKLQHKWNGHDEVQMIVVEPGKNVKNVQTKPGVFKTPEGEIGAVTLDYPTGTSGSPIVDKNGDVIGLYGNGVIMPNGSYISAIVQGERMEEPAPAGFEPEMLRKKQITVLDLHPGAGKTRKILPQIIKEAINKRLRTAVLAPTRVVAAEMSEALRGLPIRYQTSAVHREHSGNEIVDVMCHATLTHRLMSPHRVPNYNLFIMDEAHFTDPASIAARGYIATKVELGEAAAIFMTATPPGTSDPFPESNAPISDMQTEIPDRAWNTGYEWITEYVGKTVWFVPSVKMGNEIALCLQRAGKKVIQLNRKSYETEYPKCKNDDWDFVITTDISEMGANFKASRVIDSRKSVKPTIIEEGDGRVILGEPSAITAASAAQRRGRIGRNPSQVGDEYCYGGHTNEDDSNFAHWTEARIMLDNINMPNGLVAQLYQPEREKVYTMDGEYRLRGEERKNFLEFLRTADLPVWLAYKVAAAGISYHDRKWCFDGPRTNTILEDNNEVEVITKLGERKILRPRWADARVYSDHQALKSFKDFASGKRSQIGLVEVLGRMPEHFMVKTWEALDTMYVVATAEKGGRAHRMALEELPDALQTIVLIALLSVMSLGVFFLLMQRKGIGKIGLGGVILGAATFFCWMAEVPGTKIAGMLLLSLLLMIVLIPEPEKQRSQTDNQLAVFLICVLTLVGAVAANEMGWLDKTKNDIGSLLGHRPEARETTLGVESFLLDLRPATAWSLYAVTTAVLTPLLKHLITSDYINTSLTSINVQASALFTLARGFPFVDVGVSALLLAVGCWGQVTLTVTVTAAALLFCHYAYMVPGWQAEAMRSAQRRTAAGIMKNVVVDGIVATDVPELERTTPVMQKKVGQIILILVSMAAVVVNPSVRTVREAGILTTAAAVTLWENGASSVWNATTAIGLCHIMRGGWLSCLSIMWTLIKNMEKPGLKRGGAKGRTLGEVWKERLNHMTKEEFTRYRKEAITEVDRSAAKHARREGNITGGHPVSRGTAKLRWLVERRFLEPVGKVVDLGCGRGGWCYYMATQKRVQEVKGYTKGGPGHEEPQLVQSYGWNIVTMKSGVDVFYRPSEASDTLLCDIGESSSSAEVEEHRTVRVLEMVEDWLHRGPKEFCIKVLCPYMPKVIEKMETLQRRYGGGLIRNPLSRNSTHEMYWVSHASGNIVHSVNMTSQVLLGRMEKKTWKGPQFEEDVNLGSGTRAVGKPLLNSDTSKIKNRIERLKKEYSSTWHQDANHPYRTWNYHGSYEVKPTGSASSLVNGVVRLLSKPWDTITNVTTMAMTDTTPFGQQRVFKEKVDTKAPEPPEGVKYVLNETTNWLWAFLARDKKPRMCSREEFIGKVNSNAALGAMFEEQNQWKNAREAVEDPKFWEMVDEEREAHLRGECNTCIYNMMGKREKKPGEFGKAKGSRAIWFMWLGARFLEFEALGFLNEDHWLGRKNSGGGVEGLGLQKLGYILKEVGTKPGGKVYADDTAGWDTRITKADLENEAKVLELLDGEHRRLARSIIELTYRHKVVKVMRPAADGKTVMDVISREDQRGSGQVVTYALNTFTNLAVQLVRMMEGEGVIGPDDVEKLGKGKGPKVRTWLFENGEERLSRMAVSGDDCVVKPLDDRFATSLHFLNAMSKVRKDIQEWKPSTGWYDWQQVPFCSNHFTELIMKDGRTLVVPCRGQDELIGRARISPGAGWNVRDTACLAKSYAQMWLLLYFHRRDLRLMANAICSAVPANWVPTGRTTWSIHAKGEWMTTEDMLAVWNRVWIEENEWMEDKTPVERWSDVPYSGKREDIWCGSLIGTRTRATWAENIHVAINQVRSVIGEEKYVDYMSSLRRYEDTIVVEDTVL
# Sequence of Genome polyprotein (West Nile virus, UniProt P06935) (P06935 1371-1501 limits assumed): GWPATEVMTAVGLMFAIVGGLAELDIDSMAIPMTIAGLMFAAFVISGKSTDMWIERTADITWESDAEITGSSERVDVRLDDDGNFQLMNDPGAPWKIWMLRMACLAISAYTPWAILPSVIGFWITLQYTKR
# Sequence of Genome polyprotein (West Nile virus, UniProt P06935) (P06935 1502-2120 limits assumed): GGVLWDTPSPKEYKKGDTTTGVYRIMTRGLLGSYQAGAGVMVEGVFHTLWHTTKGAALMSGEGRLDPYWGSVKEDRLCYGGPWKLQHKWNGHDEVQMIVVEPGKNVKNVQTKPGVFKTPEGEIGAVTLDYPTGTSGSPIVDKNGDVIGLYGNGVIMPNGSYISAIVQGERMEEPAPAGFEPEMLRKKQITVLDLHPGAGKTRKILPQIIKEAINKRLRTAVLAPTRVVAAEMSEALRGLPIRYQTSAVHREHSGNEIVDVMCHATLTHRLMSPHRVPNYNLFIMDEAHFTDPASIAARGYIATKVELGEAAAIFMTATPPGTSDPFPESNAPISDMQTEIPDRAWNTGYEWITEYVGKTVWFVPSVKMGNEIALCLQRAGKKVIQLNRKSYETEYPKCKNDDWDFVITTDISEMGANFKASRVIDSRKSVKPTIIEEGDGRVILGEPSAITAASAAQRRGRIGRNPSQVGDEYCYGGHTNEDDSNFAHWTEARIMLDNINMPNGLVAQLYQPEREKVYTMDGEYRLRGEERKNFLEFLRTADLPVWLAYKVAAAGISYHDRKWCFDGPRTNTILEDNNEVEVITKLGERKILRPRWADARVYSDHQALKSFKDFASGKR
SMILES,Activity (Huh-7),inhibition (INH) (Trypsin),IC50 (Genome polyprotein [1]),inhibition [2],inhibition at 12.5 µM (dengue virus type 2 [3]),IC50 (Genome polyprotein [4]),inhibition [5],EC50 (Genome polyprotein [6]),inhibition [7],CC50 at 24 h [8],inhibition (INH) (Prothrombin),"Papp at 5 h, 200 µM [9]",R% [10],Drug uptake [11],Drug uptake [12],Drug uptake ([11]; BLD = below limit of detection),EC50 (dengue virus type 2 [13])
N=C(N)Nc1ccc(CNC(=O)[C@@H](NC(=O)c2ccc(-c3ccc(Cl)cc3)cc2)c2ccc(OCc3ccccc3)cc2)cc1.O=C(O)C(F)(F)F,Non-Toxic,Not Active,3.7 µM,99.9%,79.9%,2 µM,56.6%,7.1 µM,98.7%,> 50 µM,Not Active,–,–,–,–,–,–
N=C(N)Nc1ccc(CNC(=O)[C@@H](NC(=O)c2cccc(Oc3ccccc3)c2)c2ccc(OCc3ccccc3)cc2)cc1.O=C(O)C(F)(F)F,–,Not Active,6.1 µM,99.8%,–,4.9 µM,67.5%,7.3 µM,101%,> 25 µM,Not Active,0.2 ×10⁻⁶ cm/s,15.2%,168.9 µM,1.1 µM,–,–
NC(=O)N1c2ccccc2C=Cc2ccccc21 [CARBAMAZEPINE],–,–,–,–,–,–,–,–,–,–,–,8.1 ×10⁻⁶ cm/s,2.3%,171.6 µM,35.7 µM,–,–
CCCCCCC(=O)N[C@H](C(=O)NCc1ccc(NC(=N)N)cc1)c1ccc(OCc2ccccc2)cc1.O=C(O)C(F)(F)F,Non-Toxic,Not Active,17 µM,101%,81%,6.8 µM,71%,0.52 µM,97.2%,> 50 µM,Not Active,0.4 ×10⁻⁶ cm/s,15.7%,167.3 µM,1.9 µM,–,–
N=C(N)Nc1ccc(CNC(=O)[C@@H](NC(=O)c2ccc(OC3CCCCC3)cc2)c2ccc(OCc3ccccc3)cc2)cc1.O=C(O)C(F)(F)F,Non-Toxic,Not Active,8.3 µM,99.7%,72.6%,5.9 µM,70.4%,2.2 µM,98.2%,> 12.5 µM,Not Active,0.3 ×10⁻⁶ cm/s,10.8%,177.4 µM,1.6 µM,–,–
N=C(N)Nc1ccc(CNC(=O)[C@@H](NC(=O)c2ccc(OCc3ccccc3)cc2)c2ccc(OCc3ccccc3)cc2)cc1.O=C(O)C(F)(F)F,Non-Toxic,Not Active,7.1 µM,98.7%,27.4%,4.4 µM,69.8%,2.1 µM,106%,> 12.5 µM,Not Active,–,–,–,–,Bld,–
Cn1c(=O)c2c(ncn2C)n(C)c1=O [CAFFEINE],–,–,–,–,–,–,–,–,–,–,–,7.7 ×10⁻⁶ cm/s,9.6%,159.5 µM,31.9 µM,–,–
CCCCCC(=O)N[C@H](C(=O)NCc1ccc(NC(=N)N)cc1)c1ccc(OCc2ccc(C(F)(F)F)cc2)cc1.O=C(O)C(F)(F)F,Non-Toxic,Not Active,12 µM,100%,60.3%,7.4 µM,66%,3 µM,96.3%,> 50 µM,Not Active,–,–,–,–,–,–
COc1cccc(COc2ccc(C(=O)N[C@H](C(=O)NCc3ccc(NC(=N)N)cc3)c3ccc(OCc4ccccc4)cc3)cc2)c1.O=C(O)C(F)(F)F,Non-Toxic,Not Active,7.4 µM,102%,21.9%,4.7 µM,67.6%,2.9 µM,98.4%,> 12.5 µM,Not Active,–,–,–,–,Bld,–
O=C1NC(=O)C(c2ccccc2)(c2ccccc2)N1 [PHENYTOIN],–,–,–,–,–,–,–,–,–,–,–,6 ×10⁻⁶ cm/s,17.4%,149.6 µM,23.4 µM,–,–
N=C(N)Nc1ccc(CNC(=O)[C@@H](NC(=O)c2ccc(Oc3ccccc3)cc2)c2ccc(OCc3ccccc3)cc2)cc1.O=C(O)C(F)(F)F,Non-Toxic,Not Active,6.2 µM,101%,80.5%,4 µM,68.5%,3 µM,99.5%,> 12.5 µM,Not Active,0.3 ×10⁻⁶ cm/s,22.4%,154.5 µM,1.2 µM,–,9.3 µM
CCCCCC(=O)N[C@H](C(=O)NCc1ccc(CNC(=N)N)cc1)c1ccc(OCc2ccccc2)cc1.O=C(O)C(F)(F)F,Non-Toxic,Not Active,37 µM,98.6%,79.5%,14 µM,66.3%,6.3 µM,104%,> 50 µM,Not Active,–,–,–,–,–,–
N=C(N)NCCC[C@H](NC(=O)c1ccccc1)C(=O)N[C@@H](CCCCN)C(=O)N[C@@H](C(N)=O)c1ccc(OCc2ccccc2)cc1,Non-Toxic,Not Active,3.9 µM,86.7%,52.3%,0.68 µM,40.9%,16 µM,–,> 100 µM,Not Active,–,–,–,–,Bld,8.6 µM

# From ChEMBL document CHEMBL4619777, “A New Class of Dengue and West Nile Virus Protease Inhibitors with Submicromolar Activity in Reporter Gene DENV-2 Protease and Viral Replication Assays” (J Med Chem, 2020)
